T1: Peptide deformylase (Escherichia coli, UniProt Q9JN24)
T1 sequence (Q9JN24 whole entry): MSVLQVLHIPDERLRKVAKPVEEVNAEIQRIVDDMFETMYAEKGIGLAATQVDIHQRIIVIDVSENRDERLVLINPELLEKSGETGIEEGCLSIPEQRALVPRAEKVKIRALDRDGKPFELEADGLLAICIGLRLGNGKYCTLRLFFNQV

B1: Peptide deformylase, mitochondrial (Homo sapiens), Q9HBH1 (protein)
chain: MARLWGALSLWPLWAAVPWGGAAAVGVRACSSTAAPDGVEGPALRRSYWRHLRRLVLGPPEPPFSHVCQVGDPVLRGVAAPVERAQLGGPELQRLTQRLVQVMRRRRCVGLSAPQLGVPRQVLALELPEALCRECPPRQRALRQMEPFPLRVFVNPSLRVLDSRLVTFPEGCESVAGFLACVPRFQAVQISGLDPNGEQVVWQASGWAARIIQHEMDHLQGCLFIDKMDSRTFTNVYWMKVND

Experiments:
Peptide deformylase = target: T1, Peptide deformylase; experiment: Compound was evaluated for inhibitory activity against Peptide deformylase
[1] = Compound was evaluated for inhibitory activity against Zn2+ deformylase.
[2] = substrate: CCCC[C@H](O[PH](=O)O)C(=O)N[C@@H](CC(C)C)C(=O)Nc1ccc([N+](=O)[O-])cc1
Description: Apparent KM against enzyme peptide deformylase (PDF)

Molecule | Ki (Peptide deformylase) [µM] | Ki [1] [µM] | Km [2] [µM]
CCCC[C@@H](O[PH](=O)O)C(=O)N[C@@H](CC(C)C)C(=O)Nc1ccc([N+](=O)[O-])cc1 | 125 |  | 
CCCC[C@H](O[PH](=O)O)C(=O)N[C@@H](CC(C)C)C(=O)Nc1ccc([N+](=O)[O-])cc1 | 37 | 76 | 
B1 |  |  | 20

Reference: ChEMBL document CHEMBL1131371, “H-phosphonate derivatives as novel peptide deformylase inhibitors” (Bioorg Med Chem Lett, 1998)
